# Tests used:
# Assay type in all cases: in vivo
# [1] = tested on: larvae of the fall army worm (Spodoptera frugiperda); experiment: Spodoptera frugiperda test (cabbage leaf dip, larval mortality); settings: mortality after 4 days
# Method: (§1) Solvent: 7 parts by weight of dimethylformamide
# (§2) Emulsifier: 2 parts by weight of alkylaryl polyglycolether
# (§3) To produce a suitable preparation of active compound, 1 part by weight of active compound is mixed with the stated amount of solvent and emulsifier, and the concentrate is diluted with emulsifier-containing water to the desired concentration. Cabbage leaves (Brassica oleracea) are treated by being dipped into the preparation of the active compound at the desired concentration and are infested with larvae of the fall army worm (Spodoptera frugiperda) as long as the leaves are still moist. After a period of time of 4 days, the mortality is determined. 100% means that all the caterpillars have been killed; 0% means that none of the caterpillars have been killed.
# [2] = tested on: larvae of the beet army worm (Spodoptera exigua); experiment: Spodoptera exigua test (cabbage leaf dip, larval mortality); settings: mortality after 6 days; rate of application 100 ppm
# Method: as §1, §2
# as §3, with “beet” for “fall”, “exigua)” for “frugiperda)”, “6” for “4”
# [3] = tested on: larvae of the diamond black moth Plutella xylostella; experiment: Plutella xylostella test (cabbage leaf dip, larval mortality); settings: mortality after 4 days
# Method: as §1, §2
# as §3, with “diamond black moth Plutella xylostella” for “fall army worm (Spodoptera frugiperda)”
Structure (SMILES),Efficacy (%) ([1]; rate of application 20 ppm),Efficacy (%) [2],Efficacy (%) ([1]; rate of application 100 ppm),also measured
CN/C(=N\[N+](=O)[O-])NCc1cnc(Cl)s1 [clothianidin],0%,45%,,
O=[N+]([O-])NC1=NCCN1Cc1ccc(Cl)nc1 [imidacloprid],0%,,,
"CCCOC(=O)NCCCN(C)C.Cl [propamocarb, propyl[3-(dimethylamino)propyl]carbamate hydrochloride]",,0%,0%,Efficacy (%) ([3]; rate of application 200 ppm): 25%; Efficacy (%) ([1]; rate of application 200 ppm): 0%
N#C/N=C1\SCCN1Cc1ccc(Cl)nc1 [thiacloprid],,,,Efficacy (%) ([3]; rate of application 20 ppm): 20%
CN1COCN(Cc2cnc(Cl)s2)/C1=N\[N+](=O)[O-] [thiamethoxam],,,0%,
